Laboratory results: the CheMixHub viscosity set
± gives the uncertainty stated by the source.

Test: xn = mol fraction of the nth substance listed

CCC(CC)CO + CCO
298.15 K, 101.33 kPa
Settings | viscosity [mPa·s]
x2 = 0.1055 | 5.144 ± 0.045
x2 = 0.2003 | 4.502 ± 0.041
x2 = 0.3067 | 3.844 ± 0.036
x2 = 0.4044 | 3.291 ± 0.032
x2 = 0.503 | 2.777 ± 0.029
x2 = 0.6076 | 2.35 ± 0.026
x2 = 0.6966 | 1.972 ± 0.023
x2 = 0.8051 | 1.617 ± 0.021
x2 = 0.9036 | 1.345 ± 0.019

CCCCCCCC(=O)O + CCCCCC(=O)[O-].[Na+]
100 kPa, x2 = 0.3
Settings | viscosity [mPa·s]
293.15 K | 305.9 ± 10
298.15 K | 226.5 ± 6.7
303.15 K | 171.1 ± 4.2
308.15 K | 131.6 ± 2.7
313.15 K | 103 ± 1.7
318.15 K | 81.7 ± 1.1
323.15 K | 65.7 ± 0.7

Oc1ccccc1Cl + C1CCCCC1
viscosity [mPa·s], 303.15 K
Settings | x2 = 0.1078 | x2 = 0.2025 | x2 = 0.3072 | x2 = 0.4048 | x2 = 0.6046 | x2 = 0.6564 | x2 = 0.7542 | x2 = 0.8969
101 kPa | 2.275 ± 0.034 | 1.996 ± 0.03 | 1.622 ± 0.025 | 1.331 ± 0.02 | 1.032 ± 0.016 | 0.981 ± 0.015 | 0.881 ± 0.013 | 0.795 ± 0.012
101.33 kPa | 2.275 ± 0.059 | 1.996 ± 0.052 | 1.622 ± 0.042 | 1.331 ± 0.034 | 1.032 ± 0.027 | 0.981 ± 0.025 | 0.881 ± 0.023 | 0.794 ± 0.021

C=COC(C)=O + CCc1ccccc1
viscosity [mPa·s], 101 kPa
Settings | x1 = 0.1246 | x1 = 0.2478 | x1 = 0.3516 | x1 = 0.4658 | x1 = 0.576 | x1 = 0.6587 | x1 = 0.7601 | x1 = 0.8593 | x1 = 0.9467
303.15 K | 0.556 ± 0.007 | 0.523 ± 0.007 | 0.499 ± 0.006 | 0.475 ± 0.006 | 0.453 ± 0.006 | 0.439 ± 0.006 | 0.422 ± 0.006 | 0.408 ± 0.005 | 0.397 ± 0.005
313.15 K | 0.506 ± 0.007 | 0.473 ± 0.006 | 0.45 ± 0.006 | 0.426 ± 0.006 | 0.407 ± 0.005 | 0.394 ± 0.005 | 0.379 ± 0.005 | 0.364 ± 0.005 | 0.352 ± 0.005

Clc1ccccc1Cl + COc1ccccc1
viscosity [mPa·s], 101 kPa
Settings | x2 = 0.0977 | x2 = 0.1979 | x2 = 0.3012 | x2 = 0.403 | x2 = 0.4955 | x2 = 0.5995 | x2 = 0.6967 | x2 = 0.7951 | x2 = 0.8931
298.15 K | 1.201 ± 0.011 | 1.172 ± 0.011 | 1.142 ± 0.01 | 1.118 ± 0.01 | 1.097 ± 0.01 | 1.081 ± 0.01 | 1.056 ± 0.0099 | 1.037 ± 0.0097 | 1.022 ± 0.0096
303.15 K | 1.121 ± 0.01 | 1.094 ± 0.01 | 1.067 ± 0.0099 | 1.042 ± 0.0097 | 1.019 ± 0.0096 | 1 ± 0.0095 | 0.9808 ± 0.0094 | 0.9631 ± 0.0093 | 0.9486 ± 0.0092
308.15 K | 1.046 ± 0.0097 | 1.02 ± 0.0096 | 0.9938 ± 0.0094 | 0.9716 ± 0.0093 | 0.949 ± 0.0091 | 0.9288 ± 0.009 | 0.9098 ± 0.0089 | 0.8944 ± 0.0088 | 0.881 ± 0.0088
313.15 K | 0.9762 ± 0.0094 | 0.9514 ± 0.0092 | 0.9268 ± 0.009 | 0.9045 ± 0.0089 | 0.8869 ± 0.0088 | 0.8664 ± 0.0086 | 0.8479 ± 0.0085 | 0.832 ± 0.0085 | 0.8178 ± 0.0084
